Target: T1, RfaE (Escherichia coli, UniProt P76658)
T1 construct: made in house; host or cells: E. coli
Assay: Inhibition of the enzymatic activity of RfaE (HTS luminescent or fluorescent biochemical assay)
Set-up: species or system E. coli
Settings: inhibitor tested at 6 to 10 concentrations; 30 min pre-incubation at room temperature
Procedure: According to another object, the invention also relates to a method for assessing RfaE enzymatic activity. • Said method comprises • pre-incubating at room temperature • DMSO or inhibitor to be tested dissolved in DMSO and RfaE in an assay buffer • and either • adding a reaction mixture composed of RfaE, β-heptose-7-phosphate, ATP, in the assay buffer and incubating at room temperature • adding a revelation mixture composed of luciferase, D-luciferin and N-acetylcysteamine • measuring the luminescence intensity and converting into inhibition % to further calculate the IC50 values; • or • adding a reaction mixture composed of RfaE, β-heptose-7-phosphate ATP, pyruvate kinase, phosphoenolpyruvate, lactate dehydrogenase and NADH in said assay buffer, • measuring the fluorescence intensity of NADH kinetically and deriving inhibition % from fitted initial velocities, to further calculate the IC50 values.
Inhibition of the Enzymatic Activity of RfaE
RfaE is a kinase belonging to the ribokinase family. It catalyses an essential step of the biosynthesis of L-ADP-Heptose, namely the phosphorylation of β-heptose-7-phosphate (H7P) into β-heptose-1,7-bisphosphate (H17P). RfaE assays as described in the literature are essentially based on direct HLPC detection of the substrates H7P and ATP, and of the products H17P and ADP, raising obvious limitations for HTS applications. The assays described below are based either on luminescent ATP detection, or on fluorescent ADP detection. They are easily amenable to miniaturized formats and fast readouts as required by HTS.
The assay buffer “AB” contains 50 mM Hepes pH7.5, 1 mM MnCl2, 25 mM KCl, 0.012% Triton-X100 and 1 mM DTT. The following components are added in a white polystyrene Costar plate up to a final volume of 31 μL: 3 μL DMSO, or inhibitor dissolved in DMSO and 28 μL RfaE in AB. After 30 min of pre-incubation at room temperature, 29 μL of Substrates mix in AB are added in each well to a final volume of 60 μL. This reaction mixture is then composed of 3 nM RfaE (produced in house from E. coli), 0.2 μM β-heptose-7-phosphate (in house synthesis) and 0.2 μM ATP (Sigma) in assay buffer. After 40 min of incubation at room temperature, 200 μL of the revelation mix are added to a final volume of 260 μL, including the following constituents at the respective final concentrations: 2 nM luciferase (Sigma), 30 μM D-luciferin (Sigma), 100 μM N-acetylcysteamine (Aldrich). Luminescence intensity is immediately measured on an Analyst-HT (Molecular Devices) and converted into inhibition percentages. For IC50 determinations, the inhibitor is tested at 6 to 10 different concentrations, and the related inhibitions are fitted to a classical langmuir equilibrium model using XLFIT (IDBS).
The assay buffer “AB” contains 50 mM Hepes pH7.5, 1 mM MnCl2, 25 mM KCl, 0.012% Triton-X100 and 1 mM DTT. The following components are added in a black polystyrene Costar plate up to a final volume of 50 μL: 5 μL DMSO, or inhibitor dissolved in DMSO and 45 μL RfaE in AB. After 30 min of pre-incubation at room temperature, 50 μL of Substrates-revelation mix in AB are added in each well to a final volume of 100 μL. This reaction mixture is then composed of 66 μM RfaE (produced in house from E. coli), 1 μM β-heptose-7-phosphate (in house synthesis), 50 μM ATP (Sigma), 5 u/mL Pyruvate Kinase (Sigma), 50 μM phosphoenolpyruvate (Sigma), 5 u/mL Lactate dehydrogenase (Sigma) and 2.5 μM NADH (Sigma) in assay buffer. Fluorescence intensity of NADH (λex=360 nm, λem=520 nm) is immediately measured kinetically by a Fluostar Optima (BMG). Inhibition percentages are derived from fitted initial velocities. For IC50 determinations, the inhibitor is tested at 6 to 10 different concentrations, and the related inhibitions are fitted to a classical langmuir equilibrium model using XLFIT (IDBS).

T1 sequence (P76658 whole entry): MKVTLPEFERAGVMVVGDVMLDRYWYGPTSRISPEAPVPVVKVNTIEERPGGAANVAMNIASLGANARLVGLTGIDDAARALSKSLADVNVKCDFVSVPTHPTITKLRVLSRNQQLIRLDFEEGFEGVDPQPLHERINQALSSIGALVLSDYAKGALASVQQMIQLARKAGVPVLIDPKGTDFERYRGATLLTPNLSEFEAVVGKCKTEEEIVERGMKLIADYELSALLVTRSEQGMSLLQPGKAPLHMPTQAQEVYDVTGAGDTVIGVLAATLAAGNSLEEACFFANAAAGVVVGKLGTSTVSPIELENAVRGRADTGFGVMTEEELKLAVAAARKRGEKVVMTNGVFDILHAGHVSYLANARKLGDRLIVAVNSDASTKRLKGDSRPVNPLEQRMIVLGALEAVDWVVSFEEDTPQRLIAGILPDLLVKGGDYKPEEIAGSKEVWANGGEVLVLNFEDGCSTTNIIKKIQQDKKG

Molecule	IC50
COc1cccc(-c2nc(C)c(C(=O)N(CC(=O)O)Cc3nc4ccccc4s3)o2)c1 [XXIX, ((1,3-benzothiazol-2-ylmethyl){[2-(3-methoxyphenyl)-4-methyl-1,3-oxazol-5-yl]carbonyl}amino)acetic Acid]	0.24 µM
[{[2-(4-bromophenyl)-5-methyl-1,3-oxazol-4-yl]carbonyl}(pyridin-2-ylmethyl)amino]acetic Acid [XVII]	27 µM
Cc1oc(-c2cccc(C(F)(F)F)c2)nc1C(=O)N(CC(=O)O)Cc1ccccn1 [XIV, [({5-methyl-2-[3-(trifluoromethyl)phenyl]-1,3-oxazol-4-yl}carbonyl)(pyridin-2-ylmethyl)amino]acetic Acid]	35 µM
Cc1oc(-c2cccc(Br)c2)nc1C(=O)N(CC(=O)O)Cc1ccccn1 [XVIII, [{[2-(3-bromophenyl)-5-methyl-1,3-oxazol-4-yl]carbonyl}(pyridin-2-ylmethyl)amino]acetic Acid]	10 µM
Cc1oc(-c2ccccc2)nc1C(=O)N(CC(=O)O)Cc1nccs1 [XXXIII, [[(5-methyl-2-phenyl-1,3-oxazol-4-yl)carbonyl](1,3-thiazol-2-ylmethyl)amino]acetic Acid]	110 µM
Cc1oc(-c2ccccc2)cc1C(=O)N(CC(=O)O)Cc1ccccn1 [Example X, [(2-methyl-5-phenyl-3-furoyl)(pyridin-2-ylmethyl)amino]acetic Acid]	42 µM
Cn1nc(-c2ccccc2)cc1C(=O)N(CC(=O)O)Cc1ccccn1 [VIII, [[(1-methyl-3-phenyl-1H-pyrazol-5-yl)carbonyl](pyridin-2-ylmethyl)amino]acetic Acid]	57 µM
Cc1oc(-c2ccccc2)nc1C(=O)N(CC(=O)O)Nc1ccccn1 [XXXI, {1-[(5-methyl-2-phenyl-1,3-oxazol-4-yl)carbonyl]-2-pyridin-2-ylhydrazino}acetic Acid]	65 µM
Cc1nc(-c2ccccc2)oc1C(=O)N(CC(=O)O)Cc1ccccn1 [VI, [[(4-methyl-2-phenyl-1,3-oxazol-5-yl)carbonyl](pyridin-2-ylmethyl)amino]acetic Acid]	71 µM
Cc1oc(-c2cccc(NC(=O)C3CC3)c2)nc1C(=O)N(CC(=O)O)Cc1ccccn1 [XXVIII, {[(2-{3-[(cyclopropylcarbonyl)amino]phenyl}-5-methyl-1,3-oxazol-4-yl)carbonyl](pyridin-2-ylmethyl)amino}acetic Acid]	14 µM
Cc1oc(-c2ccccc2N)nc1C(=O)N(CC(=O)O)Cc1ccccn1 [XXVI, [{[2-(2-aminophenyl)-5-methyl-1,3-oxazol-4-yl]carbonyl}(pyridin-2-ylmethyl)amino]acetic Acid]	31 µM
Cc1nc(-c2ccc(N)c([N+](=O)[O-])c2)sc1C(=O)N(CC(=O)O)Cc1ccccn1 [XXXVII, [{[2-(4-amino-3-nitrophenyl)-4-methyl-1,3-thiazol-5-yl]carbonyl}(pyridin-2-ylmethyl)amino]acetic Acid]	12.9 µM
COc1cccc(-c2nc(C(=O)N(CC(=O)O)Cc3ccc4ccccc4n3)c(C)o2)c1 [XXXIV, [{[2-(3-methoxyphenyl)-5-methyl-1,3-oxazol-4-yl]carbonyl}(quinolin-2-ylmethyl)amino]acetic Acid]	12 µM

Reference: patent US20100022541A1, “Chemical inhibitors of bacterial heptose synthesis, methods for their preparation and biological applications of said inhibitors” (priority 2006, published 2010)
